Measurements reported in the supplement of paper PMC10307832.

Columns and labels:
Assay in all cases: relative viability (nuclei count vs DMSO), 5 days (fraction); higher = more cells survive
[1] = compound: C1CNCCC1C2=CC(=NN2)C3=CC=NC=C3 + COc1cccc2cc(-c3nc([C@H]4CC[C@H](C(=O)O)CC4)n4ncnc(N)c34)[nH]c12 [OSI-027] (partner 0.5 µM)
Procedure, shortened: (§1)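 Lung cancer cell lines were pin-tool dosed in 1536-well plates on the day after seeding, with either a lone drug or a fixed anchor-drug dose plus five library-drug doses (not always all listed) in √10 steps. Nuclei were counted on 4× images after 5 days. Relative viability is the ratio of treated-well to vehicle-well nuclei counts, with each value a median of duplicate plates.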

[2] = compound: C[C@@H](N)c1ccc(C(=O)Nc2ccnc3[nH]ccc23)cc1 + Cc1cc(Nc2cc(N3CCN(C)CC3)nc(Sc3ccc(NC(=O)C4CC4)cc3)n2)n[nH]1 [Tozasertib] (partner 0.1 µM)
Procedure, shortened: as §1

Tanzisertib + Vorinostat = compound: O[C@H]1CC[C@H](Nc2ncc3nc(Nc4c(F)cc(F)cc4F)n([C@H]4CCOC4)c3n2)CC1 [Tanzisertib] + O=C(CCCCCCC(=O)Nc1ccccc1)NO [Vorinostat] (partner 1 µM)
Procedure, shortened: as §1

Tanzisertib + Crizotinib = compound: O[C@H]1CC[C@H](Nc2ncc3nc(Nc4c(F)cc(F)cc4F)n([C@H]4CCOC4)c3n2)CC1 [Tanzisertib] + C[C@@H](Oc1cc(-c2cnn(C3CCNCC3)c2)cnc1N)c1c(Cl)ccc(F)c1Cl [Crizotinib] (partner 1 µM)
Procedure, shortened: as §1

Row | Cell Line | relative viability ([1]; first compound 0.08 µM) | relative viability ([1]; first compound 0.8 µM) | relative viability ([1]; first compound 2.53 µM) | relative viability ([1]; first compound 8 µM) | relative viability ([2]; first compound 0.04 µM) | relative viability ([2]; first compound 0.1265 µM) | relative viability ([2]; first compound 0.4 µM) | relative viability ([2]; first compound 1.265 µM) | relative viability ([2]; first compound 4 µM) | relative viability (Tanzisertib + Vorinostat; first compound 0.253 µM) | relative viability (Tanzisertib + Vorinostat; first compound 0.8 µM) | relative viability (Tanzisertib + Vorinostat; first compound 2.53 µM) | relative viability (Tanzisertib + Vorinostat; first compound 8 µM) | relative viability (Tanzisertib + Crizotinib; first compound 0.08 µM) | relative viability (Tanzisertib + Crizotinib; first compound 0.253 µM) | relative viability (Tanzisertib + Crizotinib; first compound 0.8 µM) | relative viability (Tanzisertib + Crizotinib; first compound 2.53 µM) | relative viability (Tanzisertib + Crizotinib; first compound 8 µM) | relative viability (Tanzisertib + Vorinostat; first compound 0.08 µM)
1 | SW 900 | 0.51 | 0.569 | 0.713 | 0.464 | 0.551 | 0.561 | 0.551 | 0.663 | 0.714 | 0.604 | 0.641 | 0.512 | 0.382 | – | – | – | – | – | –
2 | NCI-H1944 | 0.41 | 0.413 | 0.546 | 0.423 | 0.278 | 0.269 | 0.271 | 0.258 | 0.218 | 0.562 | 0.633 | 0.611 | 0.533 | 1.23 | 1.03 | 1.11 | 1.14 | 0.949 | 0.607
3 | NCI-H727 | 0.613 | 0.579 | 0.816 | 0.815 | 0.654 | 0.746 | 0.66 | 0.602 | 0.544 | 1.26 | 1.25 | 1.04 | 1.12 | 0.797 | 0.853 | 0.787 | 1.02 | 0.832 | 1.18
4 | NCI-H1650 | 0.552 | 0.744 | 0.751 | 0.625 | 0.386 | 0.483 | 0.394 | 0.291 | 0.37 | 0.601 | 0.501 | 0.625 | 0.491 | 1 | 1.06 | 1.07 | 0.914 | 0.803 | 0.551
5 | HCC-827 | 0.666 | 0.673 | 0.806 | 0.782 | 0.449 | 0.445 | 0.447 | 0.411 | 0.412 | 0.871 | 0.725 | 0.853 | 0.357 | 0.903 | 0.964 | 0.931 | 0.892 | 0.559 | 0.747
6 | HCC-366 | 1.12 | 1.01 | 1.05 | 0.878 | 0.141 | 0.169 | 0.132 | – | 0.229 | 0.361 | 0.386 | 0.428 | 0.309 | 0.651 | 0.523 | 0.671 | 0.492 | 0.515 | –
7 | HARA | 0.552 | 0.524 | 0.627 | 0.404 | – | 0.101 | 0.0806 | – | 0.087 | 0.556 | – | 0.385 | 0.585 | 1.12 | 1.05 | 1.06 | 1.06 | 1.08 | 0.558
8 | NCI-H322M | 0.608 | 0.532 | 0.653 | 0.592 | 0.491 | 0.521 | 0.494 | – | 0.464 | 0.961 | 0.875 | 0.912 | 0.75 | 0.779 | 0.928 | 0.832 | 0.882 | 0.709 | 0.863
9 | LXF-289 | 0.847 | 0.829 | 0.901 | 0.728 | 0.147 | 0.185 | 0.194 | 0.168 | 0.175 | 0.766 | 0.88 | 0.818 | 0.767 | 0.935 | 0.734 | 0.836 | 0.815 | 0.854 | 0.835
10 | PC-3 [JPC-3] | 0.827 | 0.776 | 0.835 | 0.705 | 0.892 | 0.839 | 0.955 | 0.967 | 0.816 | 1.18 | 1.04 | 0.748 | 0.445 | 0.969 | 1.05 | 0.989 | 0.971 | 0.994 | 0.835
11 | CAL-12T | 0.823 | 0.866 | 0.84 | 0.839 | 0.366 | 0.392 | 0.413 | 0.443 | 0.283 | 0.663 | 0.909 | 0.893 | 0.755 | 0.677 | 0.715 | 0.684 | 0.547 | 0.686 | 0.896
12 | COR-L 105 | 0.694 | 0.678 | 0.925 | 0.664 | 0.359 | 0.355 | 0.349 | 0.296 | 0.177 | 0.893 | 0.828 | 0.903 | 1 | 0.81 | 0.986 | 0.822 | 0.855 | 0.622 | 0.834
13 | NCI-H2347 | 0.494 | 0.291 | 0.442 | 0.487 | 0.466 | 0.64 | 0.592 | – | 0.706 | 0.628 | 0.696 | 0.588 | 0.463 | 0.675 | 0.765 | 0.739 | 0.945 | 0.827 | 0.744
14 | NCI-H2126 | 0.724 | 0.591 | 0.725 | 0.698 | 0.92 | 0.885 | 0.877 | 0.921 | 0.854 | 0.758 | 0.85 | 0.727 | 0.454 | 1.09 | 1.01 | 1.03 | 0.985 | 1.03 | 0.86
15 | NCI-H838 | 0.385 | 0.423 | 0.394 | 0.491 | 0.268 | 0.281 | 0.224 | 0.219 | 0.189 | 0.73 | 0.733 | 0.676 | 0.651 | 0.892 | 0.849 | 0.875 | 0.88 | 0.885 | 0.745
16 | A549 | – | – | – | – | – | – | – | – | – | – | – | – | – | 0.852 | 0.633 | 0.778 | 0.913 | 0.714 | –
17 | NCI-H2342 | 0.627 | 0.577 | 0.634 | 0.674 | 0.496 | 0.382 | 0.493 | 0.495 | 0.525 | 0.847 | 0.816 | 0.765 | 0.754 | – | – | – | – | – | 0.801
18 | NCI-H1623 | 0.451 | 0.504 | 0.488 | 0.42 | 0.443 | 0.452 | 0.459 | 0.475 | 0.462 | – | – | – | – | – | – | – | – | – | –
19 | SK-LU-1 | 0.386 | 0.346 | 0.346 | 0.342 | 0.34 | 0.333 | 0.372 | 0.289 | 0.311 | 0.824 | 0.734 | 0.9 | 0.828 | 0.994 | 0.776 | 1.03 | 1.05 | 0.834 | 0.848
